Laboratory results as given in US20120071536A1, “N-[(2-AZABICYCLO[2.1.1]HEX-1-YL)-ARYL-METHYL]-BENZAMIDE DERIVATIVES, PREPARATION THEREOF, AND THERAPEUTIC USE THEREOF” (SANOFI, priority 2009, published 2012).
Structures can show the parent of a compound that is named as a salt.

Row | melting point [°C] | Compound
1 | 244 to 245.5 | O=C(NC(c1ccccc1)C12CC(CN1Cc1ccccc1)C2)c1cccc(C(F)(F)F)c1Cl (racemic) (as salt: HCl) [Compound 33, N-[(2-Benzyl-2-azabicyclo[2.1.1]hex-1-yl)(phenyl)methyl]-2-chloro-3-(trifluoromethyl)-benzamide]
2 | 257 to 259 | CCN1CC2CC1(C(NC(=O)c1cccc(C(F)(F)F)c1Cl)c1ccccc1)C2 (single isomer, unassigned; (+)) (as salt: HCl) [Compound 26, (+)-2-Chloro-N-[(2-ethyl-2-azabicyclo[2.1.1]hex-1-yl)(phenyl)methyl]-3-(trifluoromethyl)benzamide]
3 | 178.5 to 179 | CC(C)(O)CN1CC2CC1(C(NC(=O)c1c(Cl)ccc(C(F)(F)F)c1Cl)c1ccccc1)C2 (racemic) (as salt: HCl) [Compound 22]
4 | 212 to 214 | CCN1CC2CC1(C(NC(=O)c1c(C)cccc1C)c1ccccc1)C2 (racemic) (as salt: HCl) [Compound 30, N-[(2-Ethyl-2-azabicyclo[2.1.1]hex-1-yl)(phenyl)methyl]-2,6-dimethylbenzamide]
5 | 273.5 to 274.5 | Cc1cccc(C)c1C(=O)NC(c1ccccc1)C12CC(CN1)C2 (racemic) (as salt: HCl) [Compound 27, N-[(2-Azabicyclo[2.1.1]hex-1-yl)(phenyl)methyl]-2,6-dimethylbenzamide]
6 | 240.5 to 241.5 | O=C(NC(c1ccccc1)C12CC(CN1CC1CC1)C2)c1cccc(C(F)(F)F)c1Cl (racemic) (as salt: HCl) [Compound 25, 2-Chloro-N-[(2-cyclopropylmethyl-2-azabicyclo[2.1.1]hex-1-yl)(phenyl)methyl]-3-(trifluoromethyl)benzamide]
7 | 146 to 147 | Cc1cccc(C(NC(=O)c2c(Cl)ccc(C(F)(F)F)c2Cl)C23CC(CN2)C3)c1 (racemic) (as salt: HCl) [Compound 29, N-[(2-Azabicyclo[2.1.1]hex-1-yl)(m-tolyl)methyl]-2,6-dichloro-3-(trifluoromethyl)-benzamide]
8 | 200 to 201 | Cc1c(C(F)(F)F)ccc(Cl)c1C(=O)NC(c1ccccc1)C12CC(CN1)C2 (racemic) (as salt: HCl) [Compound 32, N-[(2-Azabicyclo[2.1.1]hex-1-yl)(phenyl)methyl]-6-chloro-2-methyl-3-(trifluoromethyl)-benzamide]
9 | 264 to 265 | CCc1ccccc1C(=O)NC(c1ccccc1)C12CC(CN1)C2 (racemic) (as salt: HCl) [Compound 28, N-[(2-Azabicyclo[2.1.1]hex-1-yl)(phenyl)methyl]-2-ethylbenzamide]
10 | 153 to 154 | CCCN1CC2CC1(C(NC(=O)c1cc(Br)c(Cl)cc1N)c1ccccc1)C2 (racemic) (as salt: HCl) [Compound 21, 2-Amino-5-bromo-4-chloro-N-[(phenyl)(2-propyl-2-azabicyclo[2.1.1]hex-1-yl)methyl]-benzamide]
11 | 241 to 242 | CCc1ccccc1C(=O)NC(c1ccccc1)C12CC(CN1CC)C2 (racemic) (as salt: HCl) [Compound 31, 2-Ethyl-N-[(2-ethyl-2-azabicyclo[2.1.1]hex-1-yl)(phenyl)methyl]benzamide]
12 | 187 to 188 | O=C(NC(c1cccc(O)c1)C12CC(CN1)C2)c1cccc(C(F)(F)F)c1Cl (racemic) (as salt: HCl) [Compound 24, N-[(2-Azabicyclo[2.1.1]hex-1-yl)(3-hydroxyphenyl)methyl]-2-chloro-3-(trifluoromethyl)-benzamide]

Continued, compound first:

Row | Compound | melting point [°C]
13 | Nc1ccc(C(NC(=O)c2cccc(C(F)(F)F)c2Cl)C23CC(CN2)C3)cc1 (racemic) (as salt: HCl) [Compound 1, N-[(4-Aminophenyl)(2-azabicyclo[2.1.1]hex-1-yl)methyl]-2-chloro-3-(trifluoromethyl)-benzamide] | 195 to 197
14 | Cc1c(C(=O)NC(c2ccccc2)C23CC(CN2)C3)cccc1C(F)(F)F (racemic) [Compound 7, N-[(2-Azabicyclo[2.1.1]hex-1-yl)(phenyl)methyl]-2-methyl-3-(trifluoromethyl)-benzamide] | 146 to 147
15 | CCS(=O)(=O)c1cc(C(=O)NC(c2ccccc2)C23CC(CN2)C3)c(OC)cc1Cl (racemic) (as salt: HCl) [Compound 15, N-[(2-Azabicyclo[2.1.1]hex-1-yl)(phenyl)methyl]-4-chloro-5-(ethanesulphonyl)-2-methoxybenzamide] | 232 to 233
16 | Cc1cccc(C(=O)NC(c2ccccc2)C23CC(CN2)C3)c1Cl (racemic) [Compound 12, N-[(2-Azabicyclo[2.1.1]hex-1-yl)(phenyl)methyl]-2-chloro-3-methylbenzamide] | 139.5 to 140.5
17 | O=C(NC(c1ccc2ccccc2c1)C12CC(CN1)C2)c1cccc(C(F)(F)F)c1Cl (racemic) (as salt: HCl) [Compound 17, N-[(2-Azabicyclo[2.1.1]hex-1-yl)(naphth-2-yl)methyl]-2-chloro-3-(trifluoromethyl)-benzamide] | 135 to 170
18 | O=C(NC(c1cccc(C(F)(F)F)c1)C12CC(CN1)C2)c1cccc(C(F)(F)F)c1Cl (racemic) (as salt: HCl) [Compound 4, N-[(2-Azabicyclo[2.1.1]hex-1-yl)[3-(trifluoromethyl)phenyl]methyl]-2-chloro-3-(trifluoromethyl)benzamide] | 214 to 217
19 | C=CCN1CC2CC1(C(NC(=O)c1cc(Br)c(Cl)cc1N)c1ccccc1)C2 (racemic) [Compound 20, N-[(2-Allyl-2-azabicyclo[2.1.1]hex-1-yl)(phenyl)methyl]-2-amino-5-bromo-4-chloro-benzamide] | 66 to 67
20 | O=C(NC(c1ccccc1)C12CC(CN1)C2)c1cccc(C(F)(F)F)c1Cl (single isomer, unassigned; (-)) (as salt: HCl) [Compound 13, (−)N-[(2-Azabicyclo[2.1.1]hex-1-yl)(phenyl)methyl]-2-chloro-3-(trifluoromethyl)-benzamide] | 140 to 150
21 | Cl.O=C(NC(c1ccccc1)C12CC(CN1)C2)c1cc(C(F)(F)F)ccc1Cl (racemic) | 162.5 to 163.5
22 | Cc1cccc(C(NC(=O)c2cccc(C(F)(F)F)c2Cl)C23CC(CN2)C3)c1 (racemic) (as salt: HCl) [Compound 2, N-[(2-Azabicyclo[2.1.1]hex-1-yl)(m-tolyl)methyl]-2-chloro-3-(trifluoromethyl)benzamide] | 159.5 to 160.5
23 | O=C(NC(c1ccccc1)C12CC(CN1)C2)c1cccc(C(F)(F)F)c1Cl (single isomer, unassigned; (+)) (as salt: HCl) [Compound 14, (+)-N-[(2-Azabicyclo[2.1.1]hex-1-yl)(phenyl)methyl]-2-chloro-3-(trifluoromethyl)-benzamide] | 160 to 170
24 | Cc1ccc(F)c(C(=O)NC(c2ccccc2)C23CC(CN2)C3)c1Cl (racemic) [Compound 10, N-[(2-Azabicyclo[2.1.1]hex-1-yl)(phenyl)methyl]-2-chloro-6-fluoro-3-methylbenzamide] | 123 to 124
25 | O=C(NC(c1ccccc1)C12CC(CN1)C2)c1c(Cl)ccc(C(F)(F)F)c1Cl (racemic) [Compound 8, N-[(2-Azabicyclo[2.1.1]hex-1-yl)(phenyl)methyl]-2,6-dichloro-3-(trifluoromethyl)-benzamide] | 80.5 to 81.5
26 | COc1cccc(C(NC(=O)c2cccc(C(F)(F)F)c2Cl)C23CC(CN2)C3)c1 (racemic) (as salt: HCl) [Compound 3, N-[(2-Azabicyclo[2.1.1]hex-1-yl)(3-methoxyphenyl)methyl]-2-chloro-3-(trifluoro-methyl)benzamide] | 143 to 144
27 | O=C(NC(c1ccc(F)cc1)C12CC(CN1)C2)c1cccc(C(F)(F)F)c1Cl (racemic) [Compound 16, N-[(2-Azabicyclo[2.1.1]hex-1-yl)(4-fluorophenyl)methyl]-2-chloro-3-(trifluoromethyl)-benzamide] | 172.5 to 173
28 | CCN1CC2CC1(C(NC(=O)c1cccc(C(F)(F)F)c1Cl)c1ccccc1)C2.Cl (racemic) | 152 to 155
